3 compounds from patent US8097620B2, “Diazaquinolones that inhibit prolyl hydroxylase activity” (Amgen Inc., priority 2007, dated 2012) can be followed below.

For orientation: IC50 means the concentration that inhibits the measured activity by half. A low value points to higher potency.

Structures are written as SMILES.

In the experiment the target is HIF PHD2 (Homo sapiens, UniProt Q9GZT9). As to the kind of experiment: PHD2 inhibition assay (TR-FRET, VCB-Eu detection of hydroxylated P564-HIF1α peptide). It counts as biochemical. As to conditions: 2 nM PHD2, 100 nM P564-HIF1α peptide, 0.25 μM 2-oxoglutarate, 100 μM FeCl2, 2 mM ascorbic acid, pH 6. The procedure: Inhibition of HIF PHD2 activity was quantified utilizing the TR-FRET technology. HIF PHD2 catalyzes a hydroxyl modification on the proline residue of the P564-HIF1α peptide substrate (Biotin-[…] (SEQ ID NO: 7)) resulting in recognition and binding of the europylated Von Hippel-Lindau protein (pVHL), elongin B and elongin C heterotrimeric (VCB-Eu) complex.
Chain of HIF PHD2 (Q9GZT9 whole entry): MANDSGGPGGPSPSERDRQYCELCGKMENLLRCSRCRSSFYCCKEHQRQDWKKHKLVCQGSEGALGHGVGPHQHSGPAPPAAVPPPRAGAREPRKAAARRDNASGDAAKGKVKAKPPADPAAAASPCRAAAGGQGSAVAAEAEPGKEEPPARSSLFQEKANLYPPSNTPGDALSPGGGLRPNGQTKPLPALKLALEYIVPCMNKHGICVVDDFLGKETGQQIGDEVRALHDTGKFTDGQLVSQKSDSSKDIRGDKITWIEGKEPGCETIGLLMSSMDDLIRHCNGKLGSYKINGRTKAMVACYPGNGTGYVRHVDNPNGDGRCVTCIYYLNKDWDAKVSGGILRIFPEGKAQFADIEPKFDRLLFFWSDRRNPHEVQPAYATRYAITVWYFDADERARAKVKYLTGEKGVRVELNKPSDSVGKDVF
The PHD2 inhibition assay was executed by addition of freshly dissolved FeCl2 to 178.57 μM (100 μM final concentration) in PHD2 Reaction Buffer containing 30 mM MES, pH 6, 10 mM NaCl, 0.25% Brij-35, 0.01% BSA, and 1% DMSO. 28 μL of the iron solution and 2 μL of inhibitor compounds serially diluted in 100% DMSO (5% DMSO final) were added to black polypropylene 96-well microtiter plates. To that, 10 μL of 10 nM PHD2 (2 nM final) was added to all wells of the plate except for the 8 wells of column 12 (LO control), and allowed to incubate at room temperature on the shaker for one hour. Column 6 was the HI control containing PHD2 enzyme and 5% DMSO vehicle, but no inhibitor compound. To initiate the PHD2 enzymatic reaction, 10 μL of a solution containing 500 nM P564-HIF1α peptide (100 nM final), 10 mM ascorbic acid (2 mM final), and 1.25 μM 2-oxoglutarate (α-ketoglutarate; 0.25 μM final) in PHD2 Reaction Buffer was added to all wells of the plate and allowed to incubate on the shaker at room temperature for one hour.
The reaction was terminated by addition of 25 μL TR-FRET Buffer (50 mM TRIS-HCl, pH 9, 100 mM NaCl, 0.05% BSA, and 0.5% Tween-20) containing 150 mM succinate (product inhibitor; 50 mM final), 75 nM streptavidin-APC (25 nM final), and 7.5 nM VCB-Eu (2.5 nM final). The TR-FRET detection reagents were placed on a shaker for 1 hour to reach binding equilibrium before reading on the Discovery platform (PerkinElmer). Europium is excited at 315 nm and phosphoresces at 615 nm with a large Stoke's shift. APC, in turn, emits at 655 nm upon excitation at 615 nm. The TR-FRET signal is measured as the ratio of the APC 655 nm signal divided by the internal europium reference 615 nm emission signal.
The POC (percentage of control) was determined by comparing the signal from hydroxylated peptide substrate in the enzyme reaction containing inhibitor compound with that from PHD2 enzyme with DMSO vehicle alone (HI control), and no enzyme (LO control). POC was calculated using the formula: % control (POC)=(cpd−average LO)/(average HI−average LO)*100. Data (consisting of POC and inhibitor concentration in μM) was fitted to a 4-parameter equation (y=A+((B−A)/(1+((x/C)^D))), where A is the minimum y (POC) value, B is the maximum y (POC), C is the x (cpd concentration) at the point of inflection and D is the slope factor) using a Levenburg-Marquardt non-linear regression algorithm.
Background: Time-resolved FRET reads energy transfer from a long-lived donor to a nearby acceptor.
Compound `Cn1c(=O)c(C(=O)NCC(=O)O)c(O)c2cnc(-c3cccc(F)c3)nc21` [Example 22, 2-(2-(3-fluorophenyl)-5-hydroxy-8-methyl-7-oxo-7,8-dihydropyrido[2,3-d]pyrimidine-6-carboxamido)acetic acid] displayed an IC50 of 2.9 nM. This counts as single-digit nanomolar.

Compound `Cn1c(=O)c(C(=O)NCC(=O)O)c(O)c2cnc(C3CC3)nc21` [Example 24, 2-(2-cyclopropyl-5-hydroxy-8-methyl-7-oxo-7,8-dihydropyrido[2,3-d]pyrimidine-6-carboxamido)acetic acid] gave an IC50 of 3.9 nM.

Compound `Cn1c(=O)c(C(=O)NCC(=O)O)c(O)c2cnc(-c3cccc4ncccc34)nc21` [Example 35, 2-(5-hydroxy-8-methyl-7-oxo-2-(quinolin-5-yl)-7,8-dihydropyrido[2,3-d]pyrimidine-6-carboxamido)acetic acid] had an IC50 of 2.4 nM.
